The values that follow come from US20070244110A1, “Treatment of prostate cancer, melanoma or hepatic cancer” (ZENYAKU KOGYO KABUSHIKI KAISHA, priority 2006, published 2007).

The subject of one data set is B16F10 melanoma cells. The data set is described as follows: In vitro anti-tumor experiment, growth inhibition of B16F10 cells. In kind it is cell-based. Conditions: Mus musculus, B16-F10; B16F10, 72 hours incubation. How it is done: (§1) Hepatoma HepG2 cells were cultured in a MEM culture medium (containing 10% fetal bovine serum, 25 mM HEPES and 0.1 mg/ml kanamycin) under conditions of 5% carbon dioxide at 37° C. HepG2 cells were harvested as single free cells by a tripsin/EDTA treatment in the logarithmic growth phase, and a cell suspension solution consisted of 2×10^4 cells per ml was prepared with MEM culture medium (containing 10% fetal bovine serum, 25 mM HEPES and 0.1 mg/ml kanamycin). The test compound was dissolved in DMSO, then diluted with RPMI1640 culture medium (containing 10% fetal bovine serum, 25 mM HEPES, 0.1 mg/ml kanamycin), and adjusted to a concentration of 2.0×10^−9 to 2.0×10^−3 M.
(§2) 0.1 ml of the cell suspension solution was put in each well of a 96-well plate, then cultured for 24 hours to make the cells adhere to the microplates, and 0.1 ml of the test compound was added in each well and incubated for 72 hours under conditions of 5% carbon dioxide at 37° C. The 50% growth inhibition concentration (GI50 value μM) was computed from the growth inhibition rates at various test sample concentrations, and the results are shown in Table 1.
(§3) When using cells other than HepG2 cells, the following culture media were used instead of the MEM culture medium, and the following single cell suspensions were prepared with the following media:
RPMI1640 culture medium containing 10% fetal bovine serum, 1×10^4 cell suspension

The subject of a further data set is Hepatoma HepG2 cells. The data set is described as follows: In vitro anti-tumor experiment, growth inhibition of HepG2 cells. The class given is cell-based. Conditions: Homo sapiens; HepG2, 72 hours incubation. As for the experimental part: as §1, §2
In data set [1] the test system is PC-3 prostate cancer cells. The data set is described as follows: In vitro anti-tumor experiment, growth inhibition of PC-3 cells. In kind it is cell-based. Conditions: Homo sapiens; PC-3, 72 hours incubation. How it is done:
as §1, §2, §3
PC-3 prostate cancer cells:
F12K culture medium containing 10% fetal bovine serum, 2×10^4 cell suspension

Consider `C[C@@H]1CO[C@@H](C)CN1c1nc(N2CCOCC2)nc(-n2c(C(F)F)nc3ccccc32)n1` (relative stereo) [Compound 3, 2-(2-difluoromethylbenzimidazol-1-yl)-4-(trans-2,5-dimethylmorpholino)-6-morpholino-1,3,5-triazine], for which the melting point (in general, the temperature, or range, at which the solid turns liquid) was in the range of 166 to 169 °C. In addition, the GI50 – broadly, the concentration giving 50% growth inhibition – in the data set with B16F10 melanoma cells amounted to 1140 nM. Moreover, growth with Hepatoma HepG2 cells was halved (GI50) at 1120 nM. In data set [1], this molecule yielded a GI50 of 490 nM.

The molecule `CC1(C)CN(c2nc(N3CCOCC3)nc(-n3c(C(F)F)nc4ccccc43)n2)CCO1` [Compound 2, 2-(2-difluoromethylbenzimidazol-1-yl)-4-(2,2-dimethylmorpholino)-6-morpholino-1,3,5-triazine] had a melting point of 176 to 178 °C. In the data set on B16F10 melanoma cells, this molecule displayed a GI50 of 950 nM. In the data set with Hepatoma HepG2 cells, this molecule yielded a 50% growth inhibitory concentration (GI50) of 1500 nM. Besides, in data set [1], the GI50 stood at 740 nM.

With `CC1(C)CN(c2nc(N3CCOCC3)nc(-n3c(C(F)F)nc4c(Cl)cc(N)cc43)n2)CCO1` [Compound 12, 2-(6-amino-4-chloro-2-difluoromethylbenzimidazol-1-yl)-4-(2,2-dimethylmorpholino)-6-morpholino-1,3,5-triazine], the melting point was 238 °C (dec.). The molecule further gave a GI50 in the data set with B16F10 melanoma cells of 270 nM. Growth in the data set on Hepatoma HepG2 cells was halved (GI50) at 260 nM. Moreover, it took 100 nM to inhibit growth in data set [1] by half (GI50).
